Key:
Cathepsin K = molecular target: T1, Cathepsin K (Homo sapiens, UniProt P43235); assay: Inhibitory concentration against recombinant human cathepsin K determined in a fluorescence assay using 10 uM Cbz-Phe-Arg-AMC as substrate
T1 sequence (P43235 whole entry): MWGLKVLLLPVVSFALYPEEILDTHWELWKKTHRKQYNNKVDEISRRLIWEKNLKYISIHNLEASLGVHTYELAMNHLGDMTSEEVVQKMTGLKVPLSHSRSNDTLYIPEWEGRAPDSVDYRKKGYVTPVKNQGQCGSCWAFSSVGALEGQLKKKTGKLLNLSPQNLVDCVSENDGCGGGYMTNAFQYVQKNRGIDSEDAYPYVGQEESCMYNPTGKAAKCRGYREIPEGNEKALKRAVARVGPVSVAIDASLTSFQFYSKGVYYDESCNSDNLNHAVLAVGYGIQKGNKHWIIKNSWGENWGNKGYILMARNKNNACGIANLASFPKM

Cathepsin B = Cathepsin B (Homo sapiens, UniProt P07858); assay: Inhibitory concentration against recombinant human cathepsin B was determined in a fluorescence assay using 10 uM Cbz-Phe-Arg-AMC as substrate
Procathepsin L = Procathepsin L (Homo sapiens, UniProt P07711); assay: Inhibitory concentration against recombinant human cathepsin L was determined in a fluorescence assay using 5 uM Cbz-Phe-Arg-AMC as substrate
Chain of Procathepsin L (P07711 whole entry): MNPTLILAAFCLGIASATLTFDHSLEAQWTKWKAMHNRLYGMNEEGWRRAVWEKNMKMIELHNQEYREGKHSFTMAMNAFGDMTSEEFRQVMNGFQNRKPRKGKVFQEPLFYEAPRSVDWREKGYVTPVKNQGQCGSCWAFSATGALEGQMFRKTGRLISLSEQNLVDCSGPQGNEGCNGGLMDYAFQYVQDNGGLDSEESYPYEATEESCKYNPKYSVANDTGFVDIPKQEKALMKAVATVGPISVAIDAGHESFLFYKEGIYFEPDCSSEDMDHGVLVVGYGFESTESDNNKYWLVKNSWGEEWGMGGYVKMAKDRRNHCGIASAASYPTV

Compound	IC50 (Cathepsin K) [nM]	IC50 (Cathepsin B) [nM]	IC50 (Procathepsin L) [nM]
CCCC[C@@H](C=O)NC(=O)OC(Cc1ccccc1)Cc1ccccc1	71		
CCCC[C@@H](C=O)NC(=O)O[C@H](Cc1ccccc1)CC(C)C	6.5		
CCCC[C@@H](C=O)NC(=O)OCCc1ccccc1	270		
CCCC[C@@H](C=O)NC(=O)OCc1ccccc1	540		
CCCC[C@@H](C=O)NC(=O)OC(C)(C)Cc1ccccc1	12		
CCCC[C@@H](C=O)NC(=O)OC(C)(C)Cc1cccc(OC)c1	5.4		
CCCC[C@@H](C=O)NC(=O)OC(C)(C(C)C)C(C)C	4.7		
CCCC[C@@H](C=O)NC(=O)OC1(Cc2ccccc2)CCCC1		810	2000
CCCC[C@@H](C=O)NC(=O)O[C@H](C)Cc1ccccc1	100		
CCCC[C@@H](C=O)NC(=O)OC(C)(C)Cc1cccc(-c2ccsc2)c1	7.6		
CCCC[C@@H](C=O)NC(=O)OCCCc1ccccc1	600		

More lines, in order of falling IC50 (Cathepsin K), values ahead:

IC50 (Cathepsin K) [nM]	IC50 (Cathepsin B) [nM]	IC50 (Procathepsin L) [nM]	Compound
4.6			CCCC[C@@H](C=O)NC(=O)OC(C)(C)Cc1ccc(Cl)cc1
4			CCCC[C@@H](C=O)NC(=O)OC(CC)CC
3.1			CCCC[C@@H](C=O)NC(=O)OC(C)(C)Cc1ccccc1Cl
2.9			CCCC[C@@H](C=O)NC(=O)OC(C)(C)Cc1ccc(OC)cc1
2.7	400	270	CCCC[C@@H](C=O)NC(=O)O[C@@H](C)CC1CCCCC1
2.4	3400	1200	CCCC[C@@H](C=O)NC(=O)OC1(Cc2ccccc2)CCC1
2.1	2200	110	CCCC[C@@H](C=O)NC(=O)OC(CC)(CC)Cc1ccccc1
2	12000	8500	CCCC[C@@H](C=O)NC(=O)OC1(Cc2ccccc2)CCCCC1
1.8	460	740	CCCC[C@@H](C=O)NC(=O)O[C@@H](C)Cc1ccccc1
1.5			CCCC[C@@H](C=O)NC(=O)O[C@@H](CCC)Cc1ccccc1
1.1			CCCC[C@@H](C=O)NC(=O)OC(CC(C)C)CC(C)C
0.87			CCCC[C@@H](C=O)NC(=O)OC(CCC)CCC
0.56			CCCC[C@@H](C=O)NC(=O)OC(C(C)C)C(C)C
0.13	72	15	CCCC[C@@H](C=O)NC(=O)O[C@@H](CC)Cc1ccccc1
